{"source": "paper PMC6152231", "about": "“Anti-Inflammatory Triterpene Glycosides from the Roots of Ilex dunniana Levl” (Molecules : A Journal of Synthetic Chemistry and Natural …, 2017)", "key": {"[1]": {"system": "LPS-induced NO production in mouse BV2 microglial cells", "experiment": "inhibition of LPS-induced NO production (Griess)", "format": "cell-based", "details": "BV-2, LPS 1 μg/mL, 24 h, n = 3, read-out: IC50 against LPS-induced NO production", "method": "BV2 microglial cells were maintained in RPMI1640 medium at 37 °C in 5% CO2. The cells were placed in 48-well plates and preincubated for 24 h, treated with tested triterpene glycosides dissolved in DMSO at various final concentrations (5.0, 10.0, 20.0, 40.0, 80.0 μM) in triplicate for 1 h, and continuously incubated with LPS (1 μg/mL) for 24 h. Dexamethasone (10^−6 M) was used as the positive control. From each well, the supernatants (100 μL) were mixed with an equal amount of Griess reagent at room temperature for 20 min. The concentration of NO2^− was measured for the amount of NO by a microplate reader at 570 nm, using sodium nitrite as the standard to calculate the concentration of the nitrite."}, "[2]": {"system": "BV2 microglial cells", "experiment": "cytotoxicity, MTT assay", "format": "cell-based, mouse", "details": "for Cell Viability: 24 h, BV2 microglial cells, n = 3, in % (unit assumed)", "method": "Cell viabilities were measured using the MTT assay. Briefly, BV2 microglial cells were seeded in 96-well plates at concentrations of 1 × 10^5 cells per well. After incubation for 2 h, the cells were incubated with compounds for 24 h and then washed with PBS three times. Following the washing step, 200 μL of RPMI 1640 medium containing 0.5 mg/mL MTT were added to each well, the cells were then incubated at 37 °C for another 4 h. Finally, the culture medium was removed, and the formazan crystal was dissolved by adding 150 μL of DMSO. Absorbances at 570 nm were measured using a microplate reader."}, "[3]": {"system": "ear edema induced by croton oil in mice", "experiment": "croton oil-induced ear edema in mice", "format": "in vivo", "details": "ICR male mice, dose 1.0 mg/kg, positive control", "procedure": "On the basis of the inhibition of croton oil-induced ear edema in mice, the topical anti-inflammatory activity of the test compounds was evaluated. Animal experiments were performed in accordance to the Institutional Guidelines for Animal Care and Use of the Chinese Academy of Medical Sciences and Peking Union Medical College. The protocol was approved by the Committee on the Ethics of Animal Experiments of the Chinese Academy of Medical Sciences and Peking Union Medical College (permit pumber: 002973).The croton oil (Croton tiglium L., seed oil) was purchased from Sigma-Aldrich (St. Louis, MO, USA). In ICR male mice (18–20 g, n = 10 per group), croton oil (0.4 mg) was mixed with acetone (1 mL) to be applied to the left ear (10 μL each side) topically to induce ear edema. The animals were administered with candidate extracts (50 mg/kg) for 1 h, followed by treatment with croton oil for 4 h. […] Based on the weight difference between two plugs (8 mm diameter) of the treated (left) and untreated (right) ears, the edematous response was measured. The percentage reduction in edema in treated mice compared with control mice is calculated for the expression of anti-inflammatory activity."}}}
{"smiles": "CCCCOC(=O)C1OC(OC2CCC3(C)C(CCC4(C)C3CC=C3C5C(C(=O)OC6OC(CO)C(O)C(O)C6O)(CCC(C)C5(C)O)CCC34C)C2(C)C)C(O)C(O)C1O", "note": "[Compound 1, 3β-(6-O-n-butyl-D-glucuronopyranosyl)-19α-hydroxy-urs-12-en-28-oic acid 28-O-β-D-glucopyranoside]", "values": [{"measurement": "IC50", "setting": "[1]", "result": "11.6 ± 0.89", "unit": "µM"}, {"measurement": "Cell Viability", "setting": "[2]; 5.0 μM", "result": "99.74 ± 1.21"}, {"measurement": "Cell Viability", "setting": "[2]; 10.0 μM", "result": "99.28 ± 1.32"}, {"measurement": "Cell Viability", "setting": "[2]; 20.0 μM", "result": "99.35 ± 1.26"}, {"measurement": "Cell Viability", "setting": "[2]; 40.0 μM", "result": "99.62 ± 1.89"}, {"measurement": "Cell Viability", "setting": "[2]; 80.0 μM", "result": "99.70 ± 1.36"}]}
{"smiles": "CCCCOC(=O)C1OC(OC2CCC3(C)C(CCC4(C)C3CC=C3C5C(C(=O)OC6OC(CO)C(O)C(O)C6O)(CCC(C)C5(C)O)CCC34C)C2(C)C)C(O)C(OS(=O)(=O)O)C1O", "note": "[Compound 2, 3β-(3-O-sulphonyl-6-O-n-butyl-D-glucuronopyranosyl)-19α-hydroxy-urs-12-en-28-oic acid 28-O-β-D-glucopyranoside]", "values": [{"measurement": "IC50", "setting": "[1]", "result": "12.3 ± 1.21", "unit": "µM"}, {"measurement": "Cell Viability", "setting": "[2]; 5.0 μM", "result": "98.32 ± 2.05"}, {"measurement": "Cell Viability", "setting": "[2]; 10.0 μM", "result": "98.25 ± 1.87"}, {"measurement": "Cell Viability", "setting": "[2]; 20.0 μM", "result": "98.16 ± 1.25"}, {"measurement": "Cell Viability", "setting": "[2]; 40.0 μM", "result": "98.56 ± 1.37"}, {"measurement": "Cell Viability", "setting": "[2]; 80.0 μM", "result": "98.26 ± 1.88"}]}
{"smiles": "C[C@@H]1CC[C@]2(C(=O)O[C@@H]3O[C@H](CO)[C@@H](O)[C@H](O)[C@H]3O)CC[C@]3(C)C(=CCC4[C@@]5(C)CC[C@H](O[C@@H]6O[C@H](CO)[C@@H](O)[C@H](O)[C@H]6O[C@@H]6O[C@H](CO)[C@@H](O[C@@H]7O[C@H](CO)[C@@H](O)[C@H](O)[C@H]7O)[C@H](O)[C@H]6O)C(C)(C)C5CC[C@]43C)[C@@H]2[C@]1(C)O", "note": "(stereo partly drawn) [Compound 3, hylonoside II]", "values": [{"measurement": "IC50", "setting": "[1]", "result": "9.7 ± 0.86", "unit": "µM"}, {"measurement": "Cell Viability", "setting": "[2]; 5.0 μM", "result": "91.74 ± 1.11"}, {"measurement": "Cell Viability", "setting": "[2]; 10.0 μM", "result": "90.28 ± 1.82"}, {"measurement": "Cell Viability", "setting": "[2]; 20.0 μM", "result": "89.35 ± 1.35"}, {"measurement": "Cell Viability", "setting": "[2]; 40.0 μM", "result": "88.62 ± 1.21"}, {"measurement": "Cell Viability", "setting": "[2]; 80.0 μM", "result": "88.50 ± 1.32"}, {"measurement": "cytotoxic activity against microglial cell, in words", "setting": "[2]; BV2 microglial cells in vitro", "result": "showed cytotoxic activity"}]}
{"smiles": "C[C@H]1CC[C@]2(C(=O)O[C@@H]3O[C@H](CO)[C@@H](O)[C@H](O)[C@H]3O)CC[C@]3(C)C(=CCC4[C@@]5(C)CC[C@H](O[C@@H]6OC[C@H](O)[C@H](OS(=O)(=O)O)[C@H]6O)C(C)(C)C5CC[C@]43C)C2[C@]1(C)O", "note": "(stereo partly drawn) [Compound 4, ilexpublesnin H]", "values": [{"measurement": "IC50", "setting": "[1]", "result": "33.5 ± 2.11", "unit": "µM"}, {"measurement": "Cell Viability", "setting": "[2]; 5.0 μM", "result": "99.36 ± 1.31"}, {"measurement": "Cell Viability", "setting": "[2]; 10.0 μM", "result": "99.37 ± 1.21"}, {"measurement": "Cell Viability", "setting": "[2]; 20.0 μM", "result": "99.67 ± 1.32"}, {"measurement": "Cell Viability", "setting": "[2]; 40.0 μM", "result": "99.57 ± 1.53"}, {"measurement": "Cell Viability", "setting": "[2]; 80.0 μM", "result": "99.33 ± 1.30"}]}
{"smiles": "C[C@H]1CC[C@]2(C(=O)O[C@@H]3O[C@H](CO)[C@@H](O)[C@H](O)[C@H]3O)CC[C@]3(C)C(=CCC4[C@@]5(C)CC[C@H](O[C@@H]6OC[C@@H](O)[C@H](O)[C@H]6OS(=O)(=O)O)C(C)(C)C5CC[C@]43C)C2[C@]1(C)O", "note": "(stereo partly drawn) [Compound 5, ilexpublesnin I]", "values": [{"measurement": "IC50", "setting": "[1]", "result": "50.7 ± 3.25", "unit": "µM"}, {"measurement": "Cell Viability", "setting": "[2]; 5.0 μM", "result": "98.21 ± 1.93"}, {"measurement": "Cell Viability", "setting": "[2]; 10.0 μM", "result": "99.33 ± 1.54"}, {"measurement": "Cell Viability", "setting": "[2]; 20.0 μM", "result": "99.32 ± 1.32"}, {"measurement": "Cell Viability", "setting": "[2]; 40.0 μM", "result": "99.21 ± 1.66"}, {"measurement": "Cell Viability", "setting": "[2]; 80.0 μM", "result": "99.13 ± 1.28"}]}
{"smiles": "C[C@@H]1CC[C@]2(C(=O)O[C@@H]3O[C@H](CO)[C@@H](O)[C@H](O)[C@H]3O)CC[C@]3(C)C(=CCC4[C@@]5(C)CC[C@H](OS(=O)(=O)[O-])[C@](C)(CO)C5CC[C@]43C)[C@@H]2[C@]1(C)O.[Na+]", "note": "(stereo partly drawn) [Compound 6, ilexoside XXXV]", "values": [{"measurement": "IC50", "setting": "[1]", "result": "22.3 ± 2.23", "unit": "µM"}, {"measurement": "Cell Viability", "setting": "[2]; 5.0 μM", "result": "102.21 ± 1.03"}, {"measurement": "Cell Viability", "setting": "[2]; 10.0 μM", "result": "102.28 ± 1.56"}, {"measurement": "Cell Viability", "setting": "[2]; 20.0 μM", "result": "103.35 ± 1.58"}, {"measurement": "Cell Viability", "setting": "[2]; 40.0 μM", "result": "103.26 ± 1.28"}, {"measurement": "Cell Viability", "setting": "[2]; 80.0 μM", "result": "103.22 ± 1.89"}]}
{"smiles": "C=C1CC[C@]2(C(=O)O[C@@H]3O[C@H](CO)[C@@H](O)[C@H](O)[C@H]3O[C@@H]3O[C@@H](C)[C@H](O)[C@@H](O)[C@H]3O)CC[C@]3(C)C(=CC[C@@H]4[C@@]5(C)CC[C@H](O[C@@H]6OC[C@H](O)[C@H](O[C@@H]7O[C@H](CO)[C@@H](O)[C@H](O)[C@H]7O[C@@H]7O[C@H](CO)[C@@H](O)[C@H](O)[C@H]7O)[C@H]6O[C@@H]6O[C@@H](C)[C@H](O)[C@@H](O)[C@H]6O)C(C)(C)[C@@H]5CC[C@]43C)[C@@H]2[C@]1(C)O", "note": "[Compound 7, ilekudinoside F]", "values": [{"measurement": "IC50", "setting": "[1]", "result": "55.2 ± 3.26", "unit": "µM"}, {"measurement": "Cell Viability", "setting": "[2]; 5.0 μM", "result": "101.55 ± 1.42"}, {"measurement": "Cell Viability", "setting": "[2]; 10.0 μM", "result": "101.68 ± 1.36"}, {"measurement": "Cell Viability", "setting": "[2]; 20.0 μM", "result": "101.76 ± 1.47"}, {"measurement": "Cell Viability", "setting": "[2]; 40.0 μM", "result": "101.38 ± 1.58"}, {"measurement": "Cell Viability", "setting": "[2]; 80.0 μM", "result": "101.68 ± 1.38"}]}
{"smiles": "C[C@@H]1C[C@H]2[C@@H]3CCC4=CC(=O)C=C[C@]4(C)[C@@]3(F)[C@@H](O)C[C@]2(C)[C@@]1(O)C(=O)CO", "note": "[Dexamethasone, reference compound]", "values": [{"measurement": "IC50", "setting": "[1]", "result": 0.03, "unit": "µM"}, {"measurement": "Edema Degree", "setting": "[3]", "result": "5.80 ± 0.90", "unit": "mg"}, {"measurement": "Inhibitation Rate", "setting": "[3]; ear edema vs control group", "result": 71.0, "unit": "%"}, {"measurement": "Cell Viability", "setting": "[2]; 5.0 μM", "result": "101.02 ± 1.01"}, {"measurement": "Cell Viability", "setting": "[2]; 10.0 μM", "result": "99.98 ± 1.32"}, {"measurement": "Cell Viability", "setting": "[2]; 20.0 μM", "result": "100.25 ± 1.67"}, {"measurement": "Cell Viability", "setting": "[2]; 40.0 μM", "result": "101.37 ± 1.83"}, {"measurement": "Cell Viability", "setting": "[2]; 80.0 μM", "result": "99.78 ± 1.63"}]}
